Values quoted from earlier work in patent US20200078478A1, “Structural molecule of peptide derivative for PSMA-targeting radiotherapy diagnosis and treatment” (priority 2018, published 2020).

Details: Lu-177 labeled, clinical treatment

half-life: 10.8 h
SMILES: O=C(O)CC[C@H](NC(=O)N[C@@H](CCCCNC(=O)[C@H](Cc1ccc2ccccc2c1)NC(=O)[C@H]1CC[C@H](CNC(=O)CN2CCN(CC(=O)O)CCN(CC(=O)O)CCN(CC(=O)O)CC2)CC1)C(=O)O)C(=O)O [PSMA-617]
